Like-named read-outs stand apart in the source and are kept apart here. Marks after values point to notes of the source that are not given here.
Experiments:
Format in all cases: in vivo
grape downy mildew = assay: Curative utility, in addition to the Tests of Table A; details: especially for grape downy mildew
Plasmopara viticola [1] = assay: Test E: preventive control of grape downy mildew on grape seedlings
Excerpt: (§1) General protocol for preparing test suspensions: Test compounds are first dissolved in acetone in an amount equal to 3% of the final volume and then suspended at the desired concentration (in ppm) in acetone and purified water (50/50 mix) containing 250 ppm of the surfactant Trem® 014 (polyhydric alcohol esters). The resulting test suspensions are then used in the following tests. Spraying a 200 ppm test suspension to the point of run-off on the test plants is the equivalent of a rate of 500 g/ha.
The test suspension was sprayed to the point of run-off on grape seedlings. The following day the seedlings were inoculated with a spore suspension of Plasmopara viticola (the causal agent of grape downy mildew) and incubated in a saturated atmosphere at 20° C. for 24 h, moved to a growth chamber at 20° C. for 6 days, and then incubated in a saturated atmosphere at 20° C. for 24 h, after which disease ratings were made.

Pyricularia oryzae = details: rice seedlings sprayed to run-off, inoculated next day; concentration not given
Phytophthora infestans [2] = details: tomato seedlings sprayed to run-off, inoculated next day; concentration not given
Puccinia recondita = assay: Test B: preventive control of wheat leaf rust on wheat seedlings; details: wheat seedlings sprayed to run-off, inoculated next day; concentration not given
Excerpt: as §1
The test suspension was sprayed to the point of run-off on wheat seedlings. The following day the seedlings were inoculated with a spore suspension of Puccinia recondita (the causal agent of wheat leaf rust) and incubated in a saturated atmosphere at 20° C. for 24 h, and then moved to a growth chamber at 20° C. for 6 days, after which disease ratings were made.

[3] = system: Erysiphe graminis f. sp. tritici; assay: Test A: preventive control of wheat powdery mildew on wheat seedlings; details: wheat seedlings sprayed to run-off, inoculated next day, rated after 7 days; concentration not given
Excerpt: as §1
The test suspension was sprayed to the point of run-off on wheat seedlings. The following day the seedlings were inoculated with a spore dust of Erysiphe graminis f. sp. tritici, (the causal agent of wheat powdery mildew) and incubated in a growth chamber at 20° C. for 7 days, after which disease ratings were made.

Phytophthora infestans [4] = system: Phytophthora infestans
Plasmopara viticola [5] = assay: Test G: curative control of grape downy mildew on grape seedlings
Excerpt: as §1
Grape seedlings are inoculated with a spore suspension of Plasmopara viticola (the casual agent of grape downy mildew) and incubated in a saturated atmosphere at 20° C. for 24 h. The next day, test suspension is sprayed to the point of run-off and the treated plants are moved to a growth chamber at 20° C. for 6 days, and then incubated in a saturated atmosphere at 20° C. for 24 h, after which disease ratings are made.

[6] = grape seedlings sprayed to run-off, inoculated next day, concentration not given
[7] = curative, 100 ppm on potato seedlings
[8] = grape seedlings, curative, 100 ppm (footnote *)
[9] = grape seedlings, curative, 20 ppm
[10] = grape seedlings inoculated, sprayed next day (curative), concentration not given

| Molecule | curative utility (grape downy mildew) | Test E disease control rating (100 = 100% disease control, 0 = no control) (Plasmopara viticola [1]; [6]) [%] | Test C disease control rating (100 = 100% disease control, 0 = no control) (Pyricularia oryzae) [%] | Test D disease control rating (100 = 100% disease control, 0 = no control) (Phytophthora infestans [2]) [%] | Test B disease control rating (100 = 100% disease control, 0 = no control) (Puccinia recondita) [%] | Test A disease control rating (100 = 100% disease control, 0 = no control) [3] [%] | Test F disease control rating (100 = 100% disease control, 0 = no control) (Phytophthora infestans [4]; [7]) | Test G disease control rating (100 = 100% disease control, 0 = no control) (Plasmopara viticola [5]; [8]) | Test G disease control rating (100 = 100% disease control, 0 = no control) (Plasmopara viticola [5]; [9]) | Test E disease control rating (100 = 100% disease control, 0 = no control) (Plasmopara viticola [1]; grape seedlings, preventive, 100 ppm (footnote *)) | Test G disease control rating (100 = 100% disease control, 0 = no control) (Plasmopara viticola [5]; [10]) [%] | Test F disease control rating (100 = 100% disease control, 0 = no control) (Phytophthora infestans [4]; seedlings inoculated, sprayed next day (curative), concentration not given) [%] |
| --- | --- | --- | --- | --- | --- | --- | --- | --- | --- | --- | --- | --- |
| 2,4-Dichloro-N-[1-[3-chloro-5-(trifluoromethyl)-2-pyridinyl]ethyl]-3-pyridinecarboxamide [Compound 21] | significant curative utility | 100 | 0 | 100 | 74 | 0 | 100# % | 100* % | – | – | – | – |
| 2,4-Dichloro-N-[[3-chloro-5-(trifluoromethyl)-2-pyridinyl]methyl]-3-pyridinecarboxamide [Compound 19] | significant curative utility | 100 | 0 | 100 | 35 | 0 | 97# % | 37* % | – | – | – | – |
| CC(NC(=O)c1c(Cl)ccnc1Cl)c1ncc(C(F)(F)F)cc1Cl (single isomer, unassigned; (+)) [Compound 22, (+)-2,4-Dichloro-N-[1-[3-chloro-5-(trifluoromethyl)-2-pyridinyl]ethyl]-3-pyridinecarboxamide] | significant curative utility | 100 | 0 | 100 | – | – | 100# % | – | 100** % | – | – | – |
| CC(NC(=O)c1c(Cl)ccnc1Cl)c1ncc(C(F)(F)F)cc1Cl (single isomer, unassigned; (-)) [Compound 23, (−)-2,4-Dichloro-N-[-1-[3-chloro-5-(trifluoromethyl)-2-pyridinyl]ethyl]-3-pyridinecarboxamide] | – | – | – | – | – | – | 65# % | – | 0** % | 69* % | – | – |
| Cc1cc(Cl)c(C(=O)NCc2ncc(C(F)(F)F)cc2Cl)c(Cl)n1 [Compound 5, 2,4-Dichloro-N-[[3-chloro-5-(trifluoromethyl)-2-pyridinyl]methyl]-6-methyl-3-pyridinecarboxamide] | significant curative utility | 100 | – | 100 | 8 | 0 | 100# % | – | – | – | 96 | – |
| Cc1ccc(C(=O)NCc2ncc(C(F)(F)F)cc2Cl)c(Cl)n1 [Compound 11] | – | 98 | 90 | 100 | 19 | 0 | – | – | – | – | 99 | 0 |
| Cc1nc(C(F)(F)C(F)(F)F)ccc1C(=O)NCc1ncc(C(F)(F)F)cc1Cl [Compound 15] | – | 8 | 88 | 16 | 68 | 69 | – | – | – | – | 8 | – |
| COc1nc(C(F)(F)F)ccc1C(=O)NCc1ncc(C(F)(F)F)cc1Cl [Compound 16] | – | 0 | 0 | 7 | 0 | 0 | – | – | – | – | 0 | – |
| Cc1nc(Cl)ccc1C(=O)NCc1ncc(C(F)(F)F)cc1Cl [Compound 17] | – | 16 | 13 | 79 | 9 | 0 | – | – | – | – | 16 | – |
| O=C(NCc1ncc(C(F)(F)F)cc1Cl)c1ccc(C(F)(F)F)nc1 [Compound 18] | – | 0 | 0 | 25 | 32 | 0 | – | – | – | – | 0 | – |
| Cc1cnc(Cl)c(C(=O)NCc2ncc(C(F)(F)F)cc2Cl)c1Cl [Compound 20] | significant curative utility | 100 | 0 | 100 | 54 | 0 | 24# % | 100* % | – | – | – | – |
